Laboratory results from US9062284B2, “Uses and detection of herbicide resistance genes for resistance to aryloxyalkanoate herbicides” (Dow ArgoSciences LLC, priority 2007, dated 2015).

Tested on: AAD-13 (v1) transformed T1 Arabidopsis
Assay: Postemergence herbicide response of AAD-13 (v1) T1 Arabidopsis
Format: in vivo, Arabidopsis thaliana
Details: 2,240 g ae/ha 2,4-D
Procedure: Seven days after planting (DAP) and again 11 DAP, T1 plants (cotyledon and 2-4-lf stage, respectively) were sprayed with a 0.2% solution of Liberty herbicide (200 g ai/L glufosinate, Bayer Crop Sciences, Kansas City, Mo.) at a spray volume of 10 ml/tray (703 L/ha) using a DeVilbiss compressed air spray tip to deliver an effective rate of 280 g ai/ha glufosinate per application. Survivors (plants actively growing) were identified 4-7 days after the final spraying and transplanted individually into 3-inch pots prepared with potting media (Metro Mix 360). Transplanted plants were covered with humidity domes for 3-4 days and placed in a 22° C. growth chamber as before or moved to directly to the greenhouse. Domes were subsequently removed and plants reared in the greenhouse (22±5° C., 50±30% RH, 14 h light:10 dark, minimum 500 μE/m^2s^1 natural+supplemental light) at least 1 day prior to testing for the ability of AAD-13 (v1) to provide phenoxy auxin herbicide resistance.
T1 plants were then randomly assigned to various rates of 2,4-D. For Arabidopsis, 50 g ae/ha 2,4-D is an effective dose to distinguish sensitive plants from ones with meaningful levels of resistance. Elevated rates were also applied to determine relative levels of resistance (280, 560, 1120, or 2240 g ae/ha). Tables 11 and 12 show comparisons drawn to an aryloxyalkanoate herbicide resistance gene (AAD-12 (v1)) previously described in PCT/US2006/042133.
All auxin herbicide applications were made using the DeVilbiss sprayer as described above to apply 703 L/ha spray volume (0.4 ml solution/3-inch pot) or applied by track sprayer in a 187 L/ha spray volume. 2,4-D used was either technical grade (Sigma, St. Louis, Mo.) dissolved in DMSO and diluted in water (<1% DMSO final concentration) or the commercial dimethylamine salt formulation (456 g ae/L, NuFarm, St Joseph, Mo.). Dichlorprop used was commercial grade formulated as potassium salt of R-dichlorprop (600 g ai/L, AH Marks). As herbicide rates increased beyond 800 g ae/ha, the pH of the spray solution became exceedingly acidic, burning the leaves of young, tender Arabidopsis plants and complicating evaluation of the primary effects of the herbicides.
The first Arabidopsis transformations were conducted using AAD-13 (v1) (plant optimized gene). T1 transformants were first selected from the background of untransformed seed using a glufosinate selection scheme. Over 160,000 T1 seed were screened and 238 glufosinate resistant plants were identified (PAT gene), equating to a transformation/selection frequency of 0.15% which lies in the normal range of selection frequency of constructs where PAT+Liberty are used for selection. T1 plants selected above were subsequently transplanted to individual pots and sprayed with various rates of commercial aryloxyalkanoate herbicides. Table 11 compares the response of AAD-13 (v1) and control genes to impart 2,4-D resistance to Arabidopsis T1 transformants. Response is presented in terms of % visual injury 2 WAT. […] An arithmetic mean and standard deviation is presented for each treatment. The range in individual response is also indicated in the last column for each rate and transformation. PAT/Cry1F-transformed Arabidopsis served as an auxin-sensitive transformed control. The AAD-13 (v1) gene imparted herbicide resistance to individual T1 Arabidopsis plants. Within a given treatment, the level of plant response varied greatly and can be attributed to the fact each plant represents an independent transformation event. Of important note, at each 2,4-D rate tested, there were individuals that were unaffected while some were severely affected. […] At high rates the spray solution becomes highly acidic unless buffered therefore some of the injury may be attributed to the acidity of the spray solution. Arabidopsis grown mostly in the growth chamber has a very thin cuticle and severe burning effects can complicate testing at these elevated rates. […]

| SMILES | population injury average |
| --- | --- |
| O=C(O)COc1ccc(Cl)cc1Cl [2,4-D, 2,4-dichlorophenoxyacetic acid] | about 15% |

Tested on: AAD-2 (v1) transformed T1 Arabidopsis
Assay: not given
Details: 200 g ae/ha 2,4-D; see PCT/US2005/014737; cited from earlier work

| SMILES | overall population injury |
| --- | --- |
| O=C(O)COc1ccc(Cl)cc1Cl [2,4-D, 2,4-dichlorophenoxyacetic acid] | about 83% |

Target: T1, AAD-13 (Sphingobium herbicidovorans, UniProt Q700X4)
T1 sequence (Q700X4 with tags, fused parts or gaps): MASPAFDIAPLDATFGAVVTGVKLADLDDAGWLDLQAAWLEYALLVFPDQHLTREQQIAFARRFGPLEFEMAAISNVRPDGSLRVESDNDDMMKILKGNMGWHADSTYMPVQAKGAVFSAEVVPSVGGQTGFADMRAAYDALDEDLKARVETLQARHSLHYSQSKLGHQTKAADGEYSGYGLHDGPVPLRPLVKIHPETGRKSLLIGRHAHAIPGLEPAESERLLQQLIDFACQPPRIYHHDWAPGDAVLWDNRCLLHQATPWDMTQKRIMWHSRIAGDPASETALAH
Assay: not given
Details: CNPP as substrate, pH 6.75

| SMILES | Km | kcat |
| --- | --- | --- |
| CC(Oc1ccc([N+](=O)[O-])cc1Cl)C(=O)O (centres unmarked) [CNPP] | 31 ± 5.5 µM | 0.27 ± 0.0132 s⁻¹ |

Target: T2, AAD-13 (v2) (Sphingobium herbicidovorans, UniProt Q700X4)
T2 construct: His tag (C); made in house; host or cells: E. coli BL-21, pET-26b(+)
Assay: not given
Format: biochemical
Details: substrate 0.5 mM (asterisk); rate as percentage of 2,4-D rate
Source text: In order to test a broad range of substrates, the production of succinate from the breakdown of α-ketoglutarate was detected spectrophotometricly using a protocol based on the method of Luo et. al. (2006) (Anal. Biochem. 353: 69-74). As depicted in FIG. 3, the concomitant breakdown of α-ketoglutarate and the substrate of interest via AAD-13, results in the production of succinate. Succinate is further modified to succinyl-CoA by succinyl-CoA synthetase which consumes ATP and produces ADP. ADP is then consumed by the commonly employed pyruvate kinase/lactate dehydrogenase enzymatic coupling system (Sigma P0294). The resulting conversion of NADH to NAD is monitored spectrophotometrically at 340 nm.
Identification of AAD-13 (v2) substrates in vitro was based on enzymatic activity detected during continuous spectrophotometric monitoring of a 0.2 mL reaction volume in a 96 well microtiter plate. Reaction conditions were as follows: 100 mM MOPS pH 7.0, 0.4 mM NADH, 0.4 mM ATP, 0.4 mM CoA, 1 mM PEP, 10 mM MgCl2, 0.1 mM […] (solubilized in HCl), and 0.1 mM ascorbate, 1 mM α-ketoglutarate and sufficient AAD-13 (v2) to produce an observable rate in the presence of 2,4-D. Coupling enzymes (SCS/PK/LDH) were adjusted by batch to ensure adequate coupling, and potential substrates were generally assayed at 1 mM. Alterations in substrate concentrations were made as needed to adjust for solubility. Reactions were initiated by either the addition of AAD-13 (v2) or potential substrate. The rate of substrate independent conversion of α-ketoglutarate to succinate by AAD was monitored under the above assay conditions and subtracted from the observed reaction rates. […] Additionally, propionate compounds were checked for pyruvate contamination by spectrophotometrically monitoring the consumption of NADH in the presence of compound and PK/LDH.
Reaction rates are reported as a percentage of the 2,4-D reaction rate obtained in the same sample set. […] It should be noted that faster rates can be more difficult to accurately compare depending on the percentage of available substrate consumed. […] As a result, highly efficient substrates will be properly grouped when compared to low efficiency substrates. Within the grouping of highly efficient substrates however, compounds may not be quantitatively separated by a screen using single rates of substrate and AAD.

| SMILES | % of 24D activity |
| --- | --- |
| O=C(O)c1cc2cc([N+](=O)[O-])ccc2o1 [compound 238166] | Not Detected |
| O=C(O)c1cc2cc(Cl)cc(Cl)c2o1 [compound 11077344] | Not Detected |
| O=C(O)c1cc2cc(Cl)ccc2o1 [compound 11077347] | Not Detected |
| O=C(O)COc1ccc(Cl)c2cccnc12 [compound 204558] | Not Detected |
| O=C(O)COc1ccc(C(=O)c2ccc(Cl)cc2)c(Cl)c1Cl [compound 761310] | Not Detected |

Same assay, conditions: substrate 1 mM; rate as percentage of 2,4-D rate in same sample set; propionate rates divided by two

| SMILES | % of 24D activity |
| --- | --- |
| O=C(O)COc1cc(N2C(=O)C3=C(CCCC3)C2=O)c(F)cc1Cl [compound 11213586] | 2% |
| O=C(O)COc1ccc(Cl)cc1Cl [2,4-D, 2,4-dichlorophenoxyacetic acid] | 100% |
| C=C(C)CCOCC(=O)O [compound 571320] | 39% |
| O=C(O)COc1nc(F)c(Cl)cc1Cl [compound 93833] | 33% |
| O=C(O)COc1ccc(C(=O)c2ccccc2)cc1 [compound 193908] | 56% |
| CC(OCc1ccccc1)C(=O)O (centres unmarked) [compound 118942] | 46% |
| O=C(O)c1cc2cc(Br)cc(Br)c2o1 [compound 198167] | Not Detected |
| CC(Oc1ncc(Cl)cc1Cl)C(=O)O (centres unmarked) [compound 66357] | 24% |
| CC(Oc1ccc(Oc2ccc(Cl)cc2Cl)cc1)C(=O)O (centres unmarked) [diclofop] | >100% |
| Cc1cc(Cl)ccc1OC(C)C(=O)O (centres unmarked) [Mecoprop] | 169% |
| CC(Oc1nc(F)c(Cl)c(N)c1Cl)C(=O)O (stereo not drawn) [alpha methyl floroxypyr] | 43% |
| CC(Oc1ccc(C(=O)c2ccccc2)cc1)C(=O)O (centres unmarked) [compound 66732] | >100% |
| CCCC(Oc1cc(Cl)c(Cl)cc1Cl)C(=O)O (centres unmarked) [compound 188495] | 19% |
| C[C@@H](Oc1ccc(Oc2nc3ccc(Cl)cc3o2)cc1)C(=O)O [R-fenoxaprop] | 2% |
| O=C(O)/C=C/c1ccccc1Cl [compound 187507] | 10% |
| O=C(O)COCc1ccccc1 [compound 93116] | 128% |

| SMILES | % of 24D activity |
| --- | --- |
| O=C(O)COc1ccc(F)cc1Cl [compound 124988] | 44% |
| C[C@H](Oc1ccc(Cl)cc1Cl)C(=O)O [S-dichlorprop] | 233% |
| Nc1c(Cl)ccc(OCC(=O)O)c1Cl [3-amino 24D] | 151% |
| CC(Oc1ccc(F)cc1Cl)C(=O)O (centres unmarked) [compound 83293] | 106% |
| CC(Oc1nn(-c2ccccc2)c(-c2ccccc2)c1Br)C(=O)O (centres unmarked) [compound 657339] | 5% |
| O=C(O)COC(c1ccccc1)C(F)(F)F (centres unmarked) [compound 470901] | 30% |
| CCCCOC(C)C(=O)O (centres unmarked) [compound 191716] | 66% |
| O=C(O)/C=C\c1ccccc1Cl [compound 11453845] | 13% |
| CC(Oc1ccc(Cl)c(N)c1Cl)C(=O)O (centres unmarked) [compound 11113675] | 113% |
| CC(Oc1nc(F)c(Cl)cc1Cl)C(=O)O (centres unmarked) [compound 91767] | 88% |
| CC(Oc1ccc(Cl)cc1Cl)C(=O)O (centres unmarked) [r,s dichlorprop, dichlorprop] | 195% |
| CC(Oc1ccc(C(=O)c2ccc(Cl)cc2)cc1)C(=O)O (centres unmarked) [compound 8563] | 64% |
| O=C(O)COCc1ccc(Cl)cc1 [compound 475726] | 112% |
| CC(Oc1ccc(Oc2ccc(C(F)(F)F)cn2)cc1)C(=O)O (centres unmarked) [fluazifiop] | ~50% |
| O=C(O)CCCOc1ccc(Cl)cc1Cl [24DB] | 2% |
| CC(Oc1nn(-c2ccccc2)c(-c2ccccc2)c1Cl)C(=O)O (centres unmarked) [compound 657338] | 5% |
